{"source": "paper PMC3444172", "about": "(The Journal of organic chemistry, 2012)", "key": {"[1]": {"target": "M. tuberculosis riboflavin synthase (recombinant) (Mycobacterium tuberculosis, UniProt P9WK35)", "sequence (P9WK35 whole entry)": "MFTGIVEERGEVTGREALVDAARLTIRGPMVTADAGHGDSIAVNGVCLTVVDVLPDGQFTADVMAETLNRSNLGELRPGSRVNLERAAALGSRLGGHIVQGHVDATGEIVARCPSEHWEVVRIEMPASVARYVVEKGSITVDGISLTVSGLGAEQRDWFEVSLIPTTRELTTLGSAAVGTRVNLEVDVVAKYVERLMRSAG", "experiment": "Kinetic assay of riboflavin synthase inhibitors, M. tuberculosis enzyme", "assay_type": "biochemical"}, "[2]": {"target": "T1, M. tuberculosis lumazine synthase (recombinant homopentameric) (Mycobacterium tuberculosis, UniProt P9WHE9)", "T1 sequence (P9WHE9 whole entry)": "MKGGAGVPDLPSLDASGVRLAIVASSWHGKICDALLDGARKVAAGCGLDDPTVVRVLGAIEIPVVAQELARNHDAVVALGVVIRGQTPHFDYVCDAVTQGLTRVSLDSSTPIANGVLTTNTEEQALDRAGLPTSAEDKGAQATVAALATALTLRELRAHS", "assay_type": "biochemical"}, "[3]": {"target": "T2, E. coli riboflavin synthase (recombinant) (Escherichia coli, UniProt P0AFU8)", "T2 sequence (P0AFU8 whole entry)": "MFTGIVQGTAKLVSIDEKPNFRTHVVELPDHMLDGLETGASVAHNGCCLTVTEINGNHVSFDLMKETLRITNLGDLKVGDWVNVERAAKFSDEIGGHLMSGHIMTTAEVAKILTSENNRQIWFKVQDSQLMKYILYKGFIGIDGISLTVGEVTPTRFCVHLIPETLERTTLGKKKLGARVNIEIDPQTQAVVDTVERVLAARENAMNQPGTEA", "experiment": "Kinetic assay of riboflavin synthase inhibitors, E. coli enzyme", "assay_type": "biochemical"}, "[4]": {"target": "T3, S. pombe lumazine synthase (recombinant homopentameric) (Schizosaccharomyces pombe, UniProt Q9UUB1)", "T3 sequence (Q9UUB1 1-159)": "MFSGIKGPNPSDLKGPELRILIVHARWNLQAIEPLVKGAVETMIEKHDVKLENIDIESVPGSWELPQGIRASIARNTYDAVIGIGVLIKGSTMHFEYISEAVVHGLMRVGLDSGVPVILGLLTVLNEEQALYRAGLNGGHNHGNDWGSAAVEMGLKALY", "experiment": "Kinetic assay of lumazine synthase inhibitors, S. pombe enzyme", "assay_type": "biochemical"}, "[5]": {"target": "baker's yeast riboflavin synthase", "conditions": "cited from earlier work"}, "[6]": {"tested_on": "B. subtilis lumazine synthase (recombinant β60 capsid)", "conditions": "previously reported compounds; cited from earlier work"}, "[7]": {"target": "T1, M. tuberculosis lumazine synthase (recombinant homopentameric)", "conditions": "previously reported compounds, cited from earlier work"}, "[8]": {"target": "T2, E. coli riboflavin synthase (recombinant)", "conditions": "previously reported compounds, cited from earlier work"}, "[9]": {"target": "Ashbya gossypii riboflavin synthase", "conditions": "cited from earlier work"}, "[10]": {"conditions": "substrate 3 varied, Tris·HCl pH 7.0"}, "[11]": {"conditions": "substrate 2 constant, substrate 1 varied, Tris·HCl pH 7.0"}}, "note": "Read-outs that look alike come from different tables or passages of the source.", "data": [{"molecule": "COC(=O)C(=O)Nc1c(OC[C@H](O)[C@H](O)[C@H](O)CO)[nH]c(=O)[nH]c1=O", "note": "[Compound 37, Methyl 2-(2,4-dioxo-6-((2S,3R,4R)-2,3,4,5-tetrahydroxypentyloxy)1,2,3,4-tetrahydropyrimidin-5-ylamino)-2-oxoacetate]", "values": [{"measurement": "Mechanism of inhibition", "setting": "[1]", "value": "Uncompetitive"}, {"measurement": "Kcat (rate constant ES → E + P)", "setting": "[1]; [10]", "value": "0.22 ± 0.01", "unit": "m^−1"}, {"measurement": "Ki (E + I ⇌ EI)", "setting": "[1]; [10]", "value": 868, "unit": "µM"}, {"measurement": "Kis (ES + I ⇌ ESI)", "setting": "[1]; [10]", "value": "868 ± 305", "unit": "µM"}, {"measurement": "Ks (substrate dissociation constant, E + S ⇌ ES)", "setting": "[1]; [10]", "value": "4.1 ± 0.4", "unit": "µM"}, {"measurement": "Mechanism of inhibition", "setting": "[2]", "value": "Competitive"}, {"measurement": "Kcat (rate constant ES → E + P)", "setting": "[2]; pH 7", "value": "0.18 ± 0.00", "unit": "m^−1"}, {"measurement": "Ks (substrate dissociation constant, E + S ⇌ ES)", "setting": "[2]; [11]", "value": "29 ± 2", "unit": "µM"}, {"measurement": "Mechanism of inhibition", "setting": "[3]", "value": "Uncompetitive"}, {"measurement": "Kcat (rate constant ES → E + P)", "setting": "[3]; [10]", "value": "3.4 ± 0.1", "unit": "m^−1"}, {"measurement": "Kis (ES + I ⇌ ESI)", "setting": "[3]; [10]", "value": ">1000", "unit": "µM"}, {"measurement": "Ks (substrate dissociation constant, E + S ⇌ ES)", "setting": "[3]; [10]", "value": "3.1 ± 0.2", "unit": "µM"}, {"measurement": "Mechanism of inhibition", "setting": "[4]", "value": "Partial"}, {"measurement": "Kcat (rate constant ES → E + P)", "setting": "[4]; [11]", "value": "1.5 ± 0.0", "unit": "m^−1"}, {"measurement": "Kis (ES + I ⇌ ESI)", "setting": "[4]; [11]", "value": "56 ± 15", "unit": "µM"}, {"measurement": "Ks (substrate dissociation constant, E + S ⇌ ES)", "setting": "[4]; [11]", "value": "1.7 ± 0.2", "unit": "µM"}]}, {"molecule": "O=c1[nH]c(=O)c2[nH]c(=O)c(=O)n(C[C@H](O)[C@H](O)[C@H](O)CO)c2[nH]1", "note": "[Compound 81, 6,7-dihydro-6,7-dioxo-8-ribityllumazine]", "values": [{"measurement": "Ki", "setting": "[5]", "value": 0.025, "unit": "µM"}, {"measurement": "Mechanism of inhibition", "setting": "[6]", "value": "Competitive"}, {"measurement": "Kcat (rate constant ES → E + P)", "setting": "[7]; Tris·HCl pH 7.0", "value": "1.1 ± 0.1", "unit": "m^−1"}, {"measurement": "Mechanism of inhibition", "setting": "[7]", "value": "Competitive"}, {"measurement": "Kcat (rate constant ES → E + P)", "setting": "[8]; Tris·HCl pH 7.0", "value": "15 ± 0", "unit": "m^−1"}, {"measurement": "Mechanism of inhibition", "setting": "[8]", "value": "Competitive"}, {"measurement": "Ki", "setting": "[9]", "value": 0.009, "unit": "µM"}]}]}
